For this assay, the target named is TNF-α (Homo sapiens, UniProt P01375). As to the kind of experiment: TNF-α Induced HEK Blue Cellular Assay. The assay is classed as cell-based. The settings on record: HEK Blue TNFα reporter cells, TNF-α 100 pg/ml, 24 hrs at 37° C., secreted alkaline phosphatase (QUANTI-Blue, 620 nm). Put shortly: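 HEK Blue TNFα reporter cells (10,000/well, DMEM + 10% FBS) treated with compound ([…] to 0.5 nM final) and stimulated with 100 pg/ml TNF-α for 24 h at 37 °C. Secreted alkaline phosphatase read with QUANTI-Blue at 620 nm; IC50 by 4-parameter logistic fit after background correction to stimulated/unstimulated DMSO controls.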

What is called IC50 is the concentration needed to halve the response being measured.

Chain of TNF-α (P01375 77-233 limits assumed): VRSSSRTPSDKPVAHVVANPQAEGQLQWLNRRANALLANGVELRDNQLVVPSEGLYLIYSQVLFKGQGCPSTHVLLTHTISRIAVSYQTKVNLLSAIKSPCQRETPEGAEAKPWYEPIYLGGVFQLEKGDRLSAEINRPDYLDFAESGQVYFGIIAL

`Cc1nc2cc(F)c(-c3cnc(P(C)(C)=O)nc3)nc2c(N[C@@H](c2ccccc2F)C(F)(F)F)c1Cl` [Example 71, 3-chloro-6-[2-(dimethylphosphoryl)pyrimidin-5-yl]-7-fluoro-2-methyl-N-[(1S)-2,2,2-trifluoro-1-(2-fluorophenyl)ethyl]-1,5-naphthyridin-4-amine] yielded an IC50 of at most 1000 nM.

Regarding `Cc1nc2cc(F)c(-c3ccc(P(C)(C)=O)nc3)c(F)c2c(N[C@H](C)c2ccccc2F)c1Cl` [Example 72, 3-chloro-6-[6-(dimethylphosphoryl)pyridin-3-yl]-5,7-difluoro-N-[(1R)-1-(2-fluorophenyl)ethyl]-2-methylquinolin-4-amine], the IC50 was at most 1000 nM.

Molecule `CC[C@H](Nc1c(Cl)c(C)nc2cc(F)c(-c3ccc(P(C)(C)=O)nc3)c(F)c12)c1ncccc1F` [Example 73, (S)-(5-(3-chloro-5,7-difluoro-4-((1-(3-fluoropyridin-2-yl)propyl)amino)-2-methylquinolin-6-yl)pyridin-2-yl)dimethylphosphine oxide] came in with a half-inhibitory concentration (IC50) of at most 1000 nM.

`CC[C@@H](Nc1c(Cl)c(C)nc2cc(F)c(-c3ccc(P(C)(C)=O)nc3)c(F)c12)c1ncccc1F` [Example 74, (R)-(5-(3-chloro-5,7-difluoro-4-((1-(3-fluoropyridin-2-yl)propyl)amino)-2-methylquinolin-6-yl)pyridin-2-yl)dimethylphosphine oxide] displayed an IC50 of at most 1000 nM.

The molecule `Cc1nc2cc(F)c(-c3ccc(P(C)(C)=O)nc3)nc2c(N[C@H](C)c2cccnc2)c1Cl` [Example 75, 3-chloro-6-[6-(dimethylphosphoryl)pyridin-3-yl]-7-fluoro-2-methyl-N-[(1R)-1-(pyridin-3-yl)ethyl]-1,5-naphthyridin-4-amine] yielded an IC50 of at most 100 nM.

Regarding `CC[C@H](Nc1c(Cl)c(C)nc2cc(F)c(-c3ccc(P(C)(C)=O)nc3)nc12)c1ccccn1` [Example 76, 3-chloro-6-[6-(dimethylphosphoryl)pyridin-3-yl]-7-fluoro-2-methyl-N-[(1S)-1-(pyridin-2-yl)propyl]-1,5-naphthyridin-4-amine], the half-inhibitory concentration (IC50) was at most 100 nM.

In the case of `CC[C@@H](Nc1c(F)c(C)nc2cc(F)c(-c3ccc(P(C)(C)=O)nc3)nc12)c1ccccc1F` [Example 77, 6-[6-(dimethylphosphoryl)pyridin-3-yl]-3,7-difluoro-N-[(1R)-1-(2-fluorophenyl)propyl]-2-methyl-1,5-naphthyridin-4-amine], the IC50 was at most 1000 nM.

Turning to `Cc1nc2cc(F)c(-c3ccc(P(C)(C)=O)nc3)nc2c(N[C@H](C)c2cccc(Cl)c2F)c1Cl` [Example 78, 3-chloro-N-[(1R)-1-(3-chloro-2-fluorophenyl)ethyl]-6-[6-(dimethylphosphoryl)pyridin-3-yl]-7-fluoro-2-methyl-1,5-naphthyridin-4-amine], the IC50 is at most 100 nM.

The molecule `CC[C@@H](Nc1c(Cl)c(C)nc2cc(F)c(-c3ccc(P(C)(C)=O)nc3)nc12)c1ccccc1` [Example 79, 3-chloro-6-[6-(dimethylphosphoryl)pyridin-3-yl]-7-fluoro-2-methyl-N-[(1R)-1-phenylpropyl]-1,5-naphthyridin-4-amine] registered a concentration for half-maximal inhibition (IC50) of at most 100 nM.

`Cc1nc2cc(F)c(-c3ccc(P(C)(C)=O)nc3)nc2c(N[C@H](C)c2ccc(F)c(F)c2)c1Cl` [Example 80, 3-chloro-N-[(1R)-1-(3,4-difluorophenyl)ethyl]-6-[6-(dimethylphosphoryl)pyridin-3-yl]-7-fluoro-2-methyl-1,5-naphthyridin-4-amine] gave an IC50 of at most 1000 nM.

The molecule `COc1cc([C@@H](C)Nc2c(Cl)c(C)nc3cc(F)c(-c4ccc(P(C)(C)=O)nc4)nc23)ccn1` [Example 81, 3-chloro-6-[6-(dimethylphosphoryl)pyridin-3-yl]-7-fluoro-N-[(1R)-1-(2-methoxypyridin-4-yl)ethyl]-2-methyl-1,5-naphthyridin-4-amine] gave a half-inhibitory concentration (IC50) of 10000 to 30000 nM.

`CCC(Nc1c(Cl)c(C)nc2cc(F)c(-c3ccc(P(C)(C)=O)nc3)nc12)c1cccnc1` (stereo not shown) [Example 82, 3-chloro-6-[6-(dimethylphosphoryl)pyridin-3-yl]-7-fluoro-2-methyl-N-[1-(pyridin-3-yl)propyl]-1,5-naphthyridin-4-amine] came in with an IC50 of at most 100 nM.

Molecule `Cc1nc2cc(F)c(-c3ccc(P(C)(C)=O)nc3)nc2c(N[C@H](C)c2ccccn2)c1Cl` [Example 83, 3-chloro-6-[6-(dimethylphosphoryl)pyridin-3-yl]-7-fluoro-2-methyl-N-[(1R)-1-(pyridin-2-yl)ethyl]-1,5-naphthyridin-4-amine] came in with an IC50 of at most 1000 nM.

For `CC[C@@H](Nc1c(Cl)c(C)nc2cc(F)c(-c3ccc(P(C)(C)=O)nc3)nc12)c1ccccn1` [Example 84, 3-chloro-6-[6-(dimethylphosphoryl)pyridin-3-yl]-7-fluoro-2-methyl-N-[(1R)-1-(pyridin-2-yl)propyl]-1,5-naphthyridin-4-amine], the IC50 was at most 1000 nM.

In turn, `Cc1nc2cc(F)c(-c3ccc(P(C)(C)=O)nc3)nc2c(N[C@H](C)c2cc(F)cc(F)c2)c1Cl` [Example 85, 3-chloro-N-[(1R)-1-(3,5-difluorophenyl)ethyl]-6-[6-(dimethylphosphoryl)pyridin-3-yl]-7-fluoro-2-methyl-1,5-naphthyridin-4-amine] yielded a concentration for half-maximal inhibition (IC50) of at most 1000 nM.

The molecule `Cc1nc2cc(F)c(-c3ccc(P(C)(C)=O)nc3)nc2c(N[C@H](C)c2cccc(F)c2)c1Cl` [Example 86, 3-chloro-6-[6-(dimethylphosphoryl)pyridin-3-yl]-7-fluoro-N-[(1R)-1-(3-fluorophenyl)ethyl]-2-methyl-1,5-naphthyridin-4-amine] gave a half-inhibitory concentration (IC50) of at most 100 nM.

`Cc1nc2cc(F)c(-c3ccc(P(C)(C)=O)nc3)nc2c(N[C@H](C)c2ccccc2Cl)c1Cl` [Example 87, 3-chloro-N-[(1R)-1-(2-chlorophenyl)ethyl]-6-[6-(dimethylphosphoryl)pyridin-3-yl]-7-fluoro-2-methyl-1,5-naphthyridin-4-amine] displayed an IC50 of 1000 to 10000 nM.

Regarding `Cc1nc2cc(F)c(-c3ccc(P(C)(C)=O)nc3)nc2c(N[C@H](C)c2ccc(F)cc2F)c1Cl` [Example 88, 3-chloro-N-[(1R)-1-(2,4-difluorophenyl)ethyl]-6-[6-(dimethylphosphoryl)pyridin-3-yl]-7-fluoro-2-methyl-1,5-naphthyridin-4-amine], the IC50 lay within 10000 to 30000 nM.

Turning to `Cc1nc2cc(F)c(-c3ccc(P(C)(C)=O)nc3)nc2c(N[C@H](C)c2c(F)ccc(F)c2F)c1Cl` [Example 89, 3-chloro-6-[6-(dimethylphosphoryl)pyridin-3-yl]-7-fluoro-2-methyl-N-[(1R)-1-(2,3,6-trifluorophenyl)ethyl]-1,5-naphthyridin-4-amine], the IC50 was 10000 to 30000 nM.

The molecule `Cc1nc2cc(F)c(-c3ccc(P(C)(C)=O)nc3)nc2c(N[C@H](C)c2ccccc2)c1Cl` [Example 90, 3-chloro-6-[6-(dimethylphosphoryl)pyridin-3-yl]-7-fluoro-2-methyl-N-[(1R)-1-phenylethyl]-1,5-naphthyridin-4-amine] yielded an IC50 of at most 100 nM.

`Cc1nc2cc(F)c(-c3ccc(P(C)(C)=O)nc3)nc2c(N[C@H](C)c2cccc(Cl)c2)c1Cl` [Example 91, 3-chloro-N-[(1R)-1-(3-chlorophenyl)ethyl]-6-[6-(dimethylphosphoryl)pyridin-3-yl]-7-fluoro-2-methyl-1,5-naphthyridin-4-amine]: the IC50 is at most 100 nM.

`Cc1nc2cc(F)c(-c3ccc(P(C)(C)=O)nc3)nc2c(N[C@H](C)c2cccc(C(F)F)c2)c1Cl` [Example 92, 3-chloro-N-[(1R)-1-[3-(difluoromethyl)phenyl]ethyl]-6-[6-(dimethylphosphoryl)pyridin-3-yl]-7-fluoro-2-methyl-1,5-naphthyridin-4-amine] registered an IC50 of at most 100 nM.

`Cc1nc2cc(F)c(-c3ccc(P(C)(C)=O)nc3)nc2c(N[C@H](C)c2cccc(C(F)(F)F)c2)c1Cl` [Example 93, 3-chloro-6-[6-(dimethylphosphoryl)pyridin-3-yl]-7-fluoro-2-methyl-N-[(1R)-1-[3-(trifluoromethyl)phenyl]ethyl]-1,5-naphthyridin-4-amine] gave an IC50 of at most 100 nM.

`Cc1nc2cc(F)c(-c3ccc(P(C)(C)=O)nc3)nc2c(NC(C)c2ncccc2F)c1Cl` (stereo not shown) [Example 94, 3-chloro-6-[6-(dimethylphosphoryl)pyridin-3-yl]-7-fluoro-N-[1-(3-fluoropyridin-2-yl)ethyl]-2-methyl-1,5-naphthyridin-4-amine]: the IC50 was at most 1000 nM.

Consider `CC[C@@H](Nc1c(Cl)c(C)nc2cc(F)c(-c3ccc(P(C)(C)=O)nc3)nc12)c1cccc(F)c1F` [Example 95, (R)-(5-(7-chloro-8-((1-(2,3-difluorophenyl)propyl)amino)-3-fluoro-6-methyl-1,5-naphthyridin-2-yl)pyridin-2-yl)dimethylphosphine oxide], for which the IC50 is at most 100 nM.

As to `CC[C@H](Nc1c(Cl)c(C)nc2cc(F)c(-c3ccc(P(C)(C)=O)nc3)nc12)c1cccc(F)c1F` [Example 96, (S)-(5-(7-chloro-8-((1-(2,3-difluorophenyl)propyl)amino)-3-fluoro-6-methyl-1,5-naphthyridin-2-yl)pyridin-2-yl)dimethylphosphine oxide], the IC50 is at most 100 nM.

Turning to `Cc1nc2cc(F)c(-c3ccc(P(C)(C)=O)nc3)c(F)c2c(NC(C)c2ncccc2F)c1Cl` (stereo not shown) [Example 97, 3-chloro-6-[6-(dimethylphosphoryl)pyridin-3-yl]-5,7-difluoro-N-[1-(3-fluoropyridin-2-yl)ethyl]-2-methylquinolin-4-amine], the 50% inhibitory concentration (IC50) is at most 1000 nM.

`C#Cc1ccc(F)c([C@@H](C)Nc2c(Cl)c(C)nc3cc(F)c(-c4ccc(P(C)(C)=O)nc4)nc23)c1` [Example 98, 3-chloro-6-[6-(dimethylphosphoryl)pyridin-3-yl]-N-[(1R)-1-(5-ethynyl-2-fluorophenyl)ethyl]-7-fluoro-2-methyl-1,5-naphthyridin-4-amine] yielded a half-inhibitory concentration (IC50) of at most 1000 nM.

The values are drawn from US12338262B2 (Forward Therapeutics, Inc., priority 2022, dated 2025).
